This note sets out measurements from patent publication US9517221B2, “(2R)-2-propyloctanoic acid for functional brain disease” (ONO PHARMACEUTICAL CO., LTD., priority 2006, dated 2016).

Holding throughout (format): in vivo, rat
One assay has as its system Wistar male rats. Nature of the assay: Confirmation test of anti-stress activity (Test Example 2). To be noted: oral, 30 minutes before stress loading; counted 1 hour thereafter; present tense.
The subject of assay [1] is olfactory bulbectomized rats. Nature of the assay: Anxiolytic behavior on elevated plus maze of olfactory bulbectomized rats. To be noted: for Time (seconds) stayed on closed arm (mean ± S. E.) / Time (seconds) stayed on open arm (mean ± S. E.): 5 minutes test 1 hour after 8 days administration. As for the experimental part: SPF rats (Crlj: WI) were used in the test. The animal for olfactory bulbectomy was anesthetized with pentobarbital sodium (Nembutal R Injection, Dainippon Pharmaceutical, dose: 1 mL/kg (intraperitoneal administration)), and the head was fixed using a brain stereotaxic apparatus (ASI Instruments, Inc., NARISHIGE). After incising the head skin, holes are opened at right and left olfactory bulb regions of the skull using a dental drill (manufactured by […]), and the right and left olfactory bulbs were removed by sucking them using an aspirator connected to a tip-removed oral sonde, and the head skin was stitched thereafter. In this connection, in the case of the animals for sham-operation, anesthesia, brain fixation and head skin incision were carried out in the same manner as in the animals for olfactory bulbectomy, holes are opened at right and left olfactory bulb regions of the skull and the head skin was stitched without carrying out suction removal of the olfactory bulbs. The rats after olfactory bulbectomy were put into a series of five stainless steel cages, each of which was partitioned into two parts with an acrylic board for individual rearing space, and individually reared under a dark condition. The rats were subjected to the following tests of (2) and (3). • (a) Sham-operation group (12 animals); • (b) Vehicle control group (12 animals); • (c) 3 mg/kg administration group (12 animals) of (2R)-2-propyloctanoic acid; • (d) 10 mg/kg administration group (12 animals) of (2R)-2-propyloctanoic acid; • (e) 10 mg/kg administration group (12 animals) of Milnacipran hydrochloride. [Drug Administration] As shown below, drug solution or vehicle was administered once a day for 8 days, a total of 8 times, at a respective liquid dose of 5 mL/kg. • (a) Sham-operation group: vehicle (0.1% by volume Tween 80) aqueous solution; • (b) Vehicle control group: vehicle (0.1% by volume Tween 80) aqueous solution; • (c) 3 mg/kg administration group of (2R)-2-propyloctanoic acid: a drug solution in which (2R)-2-propyloctanoic acid was prepared to be 0.6 mg/mL with the vehicle; • (d) 10 mg/kg administration group of (2R)-2-propyloctanoic acid: a drug solution in which (2R)-2-propyloctanoic acid was prepared to be 2.0 mg/mL with the vehicle; • (e) 10 mg/kg administration group of milnacipran hydrochloride: a drug solution in which Milnacipran hydrochloride was prepared to be 2.3 mg/mL with the vehicle (Milnacipran itself is included in 2.0 mg/mL). (2) Examination of the Activity for Hyperemotional Reactivity <Evaluation Method> Evaluation of the anxiolytic behavior on an elevated plus maze was carried out once per animal for 5 minutes from 1 hour to 1 hour and 10 minutes after 8 days of the administration, in accordance with the following method. Each animal was softly put on a platform of elevated plus maze which is described later, toward one of the open arms. Thereafter, behavior of the animal was shot using a video camera (CCD-DC430, SONY) set up the elevated plus maze, and the images were analyzed by a video image behavior analyzing device (Etho Vision, manufactured by Noldus). Additionally, the images from the video camera were recorded and handled as reference data. In this connection, when the animal fell, it was regarded as staying on the open arm, and the animal was quickly returned to the place or the open arm where it was present just before the falling. The evaluation was carried out on the respective items shown by A to H (A: frequency of approach to the open arm, B: frequency of approach to the closed arm, C: frequency of approach to the platform, D: stayed time (second) on the open arm, E: stayed time (second) on the closed arm, F: stayed time (second) on the platform, G: defecation frequency on the open arm, platform and closed arm, and H: urination frequency on the open arm, platform and closed arm), by measuring A to F using the video image behavior analyzing device, and by measuring G and H after completion of the measurement. […]

Another assay deals with SD rats. The experiment in a line: Water-immersion stress-loaded elevated plus maze test (Test Example 1). The note with it: oral, 1 hour before test, written in present tense. As for the experimental part:
Two open arms of the same length (50×10 cm) and two closed arms of the same length (50×10 cm) (a wall of 30 cm is set) are set crossing at a right angle at a height of 50 cm from the floor and used as an elevated plus maze apparatus. Constant lighting is effected by attaching white lights to 70 cm over both of the open arms.
Using a pool (40×30×38 cm) charged with water of 22° C. to a depth of 25 cm, 120 seconds of forced swimming is loaded on SD rats of 7 weeks of age (Charles River Japan). After 9 minutes of the water-immersion stress-loading, the rats are allowed to stand still on a central part of the apparatus, and the behavior of the rats are analyzed for 5 minutes by an automatic behavior tracing analysis system (EthoVision Version 3.0, Noldus Information Technology) to calculate its staying time (second) on the open arms.
In this connection, rats of the control group are not subjected to the water-immersion stress-loading. Also, a vehicle is orally administered to the vehicle treating group 1 hour before the commencement of the test, and a test drug of various concentrations is administered to the test drug treating group.

The mark [2] stands for this setting: dose 3 mg/kg once a day for 8 days.
Setting [3] is: dose 10 mg/kg once a day for 8 days.

With `CCCCCC[C@@H](CCC)C(=O)O` [(2R)-2-propyloctanoic acid], the “Number of defecations versus vehicle treating group” value in the assay with Wistar male rats is “significantly suppress the number of defecations”. The “Time (seconds) stayed on closed arm (mean ± S. E.)” value in assay [1] (setting [2]) came to 188.7 ± 19.7 s; in assay [1] (setting [3]), 209.4 ± 24.1 s. For the same compound, the entries for the “Time (seconds) stayed on open arm (mean ± S. E.)” value in assay [1] (setting [2]) and in assay [1] (setting [3]) were 73.7 ± 17.5 s and 57.7 ± 22.1 s, respectively. The “Anxiolytic behavior versus vehicle control group” value in assay [1] (olfactory bulbectomized rats, elevated plus maze, result in words) is “inhibited the anxiolytic behavior”. Further, the “Staying time on the open arms versus vehicle treating group” value in the assay with SD rats is listed as “prolongs the staying time on the open arms”.
